Experimental data reported in patent publication US8258159B2, “Inhibitors of the α2β1/GPIa-IIa integrin” (The Trustees Of The University Of Pennsylvania, priority 2005, dated 2012).
Like-named read-outs stand apart in the source and are kept apart here. *1 amine or outer side, *2 acyl side, *3 side chain or, on linkers, in order; H or OH if unused. Where a SMILES comes first, the peptide text is derived from it. Side-chain parts run from the residue outwards. [ ]: non-standard residue; d: D form. The star is where a group is joined. Tos = Cc1ccc(S(=O)(=O)*)cc1; Dap = NC[C@H](N)C(=O)O; CO = O=C([*:1])[*:2]; NHBn = c1ccc(CN*)cc1

Assays:
Format in all cases: cell-based
[1] = target: T1, α2β1 integrin (Homo sapiens, UniProt P05556+P17301); assay: Platelet adhesion assay (human platelet adhesion to type I collagen)
T1 construct: endogenous in cells; host or cells: gel-filtered human platelets of a single donor
T1 sequence (P17301 30-1181): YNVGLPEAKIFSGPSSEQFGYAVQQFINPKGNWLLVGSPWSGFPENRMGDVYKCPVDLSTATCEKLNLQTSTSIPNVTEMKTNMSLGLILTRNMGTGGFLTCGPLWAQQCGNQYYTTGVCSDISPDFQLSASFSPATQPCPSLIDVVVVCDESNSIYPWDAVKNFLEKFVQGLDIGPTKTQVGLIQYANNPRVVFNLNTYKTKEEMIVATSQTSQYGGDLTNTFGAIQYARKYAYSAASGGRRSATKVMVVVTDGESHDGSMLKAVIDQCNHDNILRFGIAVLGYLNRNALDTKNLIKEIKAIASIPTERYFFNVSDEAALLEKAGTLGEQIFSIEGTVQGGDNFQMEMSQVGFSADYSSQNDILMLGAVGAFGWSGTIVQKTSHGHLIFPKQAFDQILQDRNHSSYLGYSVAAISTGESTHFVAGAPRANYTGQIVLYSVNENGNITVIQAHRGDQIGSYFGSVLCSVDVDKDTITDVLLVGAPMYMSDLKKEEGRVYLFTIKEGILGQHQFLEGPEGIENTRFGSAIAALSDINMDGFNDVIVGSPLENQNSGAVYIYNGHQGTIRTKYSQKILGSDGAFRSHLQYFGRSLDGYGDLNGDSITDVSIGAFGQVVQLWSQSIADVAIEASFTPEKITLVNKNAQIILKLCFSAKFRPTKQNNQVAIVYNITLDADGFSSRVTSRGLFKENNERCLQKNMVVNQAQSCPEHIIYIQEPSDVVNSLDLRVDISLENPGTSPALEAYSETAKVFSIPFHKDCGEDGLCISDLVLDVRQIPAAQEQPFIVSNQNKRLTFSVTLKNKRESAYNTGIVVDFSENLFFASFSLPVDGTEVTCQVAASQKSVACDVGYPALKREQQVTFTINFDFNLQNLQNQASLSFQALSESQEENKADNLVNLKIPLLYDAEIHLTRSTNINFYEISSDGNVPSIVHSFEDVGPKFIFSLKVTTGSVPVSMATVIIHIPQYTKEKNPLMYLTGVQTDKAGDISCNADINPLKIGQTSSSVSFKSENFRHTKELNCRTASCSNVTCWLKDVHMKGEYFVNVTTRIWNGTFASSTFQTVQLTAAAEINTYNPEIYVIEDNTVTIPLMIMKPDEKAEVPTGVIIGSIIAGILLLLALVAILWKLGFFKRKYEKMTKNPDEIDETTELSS
T1 sequence (P05556 21-798): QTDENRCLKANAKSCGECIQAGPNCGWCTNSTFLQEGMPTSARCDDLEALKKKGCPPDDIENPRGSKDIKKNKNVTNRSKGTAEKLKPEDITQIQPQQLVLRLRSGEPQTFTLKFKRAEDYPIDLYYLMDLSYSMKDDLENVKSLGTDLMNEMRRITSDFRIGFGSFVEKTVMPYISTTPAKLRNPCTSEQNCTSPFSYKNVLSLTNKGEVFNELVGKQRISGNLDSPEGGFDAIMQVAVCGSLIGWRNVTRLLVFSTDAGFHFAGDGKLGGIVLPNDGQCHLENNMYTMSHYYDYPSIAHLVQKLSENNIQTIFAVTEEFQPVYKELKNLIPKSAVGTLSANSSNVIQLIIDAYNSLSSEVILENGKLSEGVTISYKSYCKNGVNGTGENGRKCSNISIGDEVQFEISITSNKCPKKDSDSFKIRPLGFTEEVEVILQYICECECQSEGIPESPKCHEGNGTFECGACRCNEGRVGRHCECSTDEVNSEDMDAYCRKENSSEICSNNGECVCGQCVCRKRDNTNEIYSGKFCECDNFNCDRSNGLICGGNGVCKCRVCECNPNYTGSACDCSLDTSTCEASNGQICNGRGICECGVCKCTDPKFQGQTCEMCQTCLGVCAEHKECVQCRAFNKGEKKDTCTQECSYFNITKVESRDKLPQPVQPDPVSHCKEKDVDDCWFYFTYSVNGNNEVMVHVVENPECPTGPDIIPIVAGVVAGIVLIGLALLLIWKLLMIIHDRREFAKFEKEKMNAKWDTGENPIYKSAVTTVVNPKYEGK
Description: The inhibitory strength of the compounds of the present disclosure was analyzed as against platelet adhesion to type I collagen. Ninety-six well flat bottom microtiter plates (Immulon 2, Dynatech Laboratories, Chantilly, Va.) were coated with collagen, purified human fibrinogen, or bovine serum albumin, each dissolved in 50 mM NaHCO3 buffer, pH 8.0, containing 150 mM NaCl as previously described. See Bennett J S, Chan C, Vilaire G, Mousa S A, DeGrado W F. Agonist-Activated αvβ3 on Platelets and Lymphocytes Binds to the Matrix Protein Osteopontin. J Biol Chem. 272, 8137-814) (1997). Unoccupied protein binding sites on the wells were blocked with 5 mg/ml bovine serum albumin dissolved in the same buffer. Human platelets were isolated from blood anticoagulated with 0.1 volume 3.8% sodium citrate by gel-filtration using a 4 mM HEPES buffer, pH 7.4, containing 135 mM NaCl, 2.7 mM KCl, 5.6 mM glucose, 3.3 mM NaH2PO4, 0.35 mg/ml bovine serum albumin and various concentrations of CaCl2 or MgCl2 according to the experiment. One hundred μl aliquots of the gel-filtered platelet suspension containing 1-2×10^8 platelets were added to the protein-coated wells in the absence or presence of a platelet agonist. Following an incubation for 30 min at 37° C. without agitation, the plates were washed 4 times with the Tris-buffered NaCl, containing 2 mM MgCl2, pH 7.4, and the number of adherent platelets measured using the colorimetric assay reported by Bellavite P, Andrioli G, Guzzo P, et al. A colorimetric method for the measurement of platelet adhesion in microtiter plates. Anal Biochem. 216, 444-450 (1994). Briefly, 150 μl of a 0.1 M citrate buffer, pH 5.4, containing 5 mM p-nitrophenyl phosphate and 0.1% Triton X-100 was added to the wells after washing. After an incubation for 60 min at room temperature in the absence of ambient light, color was developed by the addition of 100 μl of 2N NaOH and, using EL800 Universal Microplate Reader (Bio-Tek Instruments, Inc., Winooski, Vt.), read in microtiter plate reader at 405 nm.
The potencies of the compounds of the present disclosure were determined by testing the ability of a range of concentrations of each compound to inhibit human platelet adhesion to soluble collagen under static conditions. Owing to the fact that soluble collagen is a specific ligand for α2β1 integrin, this is an accepted method of assessing α2β1 inhibition on platelets.
IC50 values were determined by using the platelets of a single donor. In cases where multiple assays were performed, the reported results reflect the average IC50 value derived from the separate assays.

[2] = target: T2, α4β1 (Homo sapiens, UniProt P05556+P13612); assay: Cell adhesion assay to assess specificity: Jurkat cells on VCAM
T2 construct: Jurkat cells expressing α4β1; Marcinkiewicz (Temple University, Philadelphia, Pa.); host or cells: Jurkat
T2 sequence (P13612 34-1032): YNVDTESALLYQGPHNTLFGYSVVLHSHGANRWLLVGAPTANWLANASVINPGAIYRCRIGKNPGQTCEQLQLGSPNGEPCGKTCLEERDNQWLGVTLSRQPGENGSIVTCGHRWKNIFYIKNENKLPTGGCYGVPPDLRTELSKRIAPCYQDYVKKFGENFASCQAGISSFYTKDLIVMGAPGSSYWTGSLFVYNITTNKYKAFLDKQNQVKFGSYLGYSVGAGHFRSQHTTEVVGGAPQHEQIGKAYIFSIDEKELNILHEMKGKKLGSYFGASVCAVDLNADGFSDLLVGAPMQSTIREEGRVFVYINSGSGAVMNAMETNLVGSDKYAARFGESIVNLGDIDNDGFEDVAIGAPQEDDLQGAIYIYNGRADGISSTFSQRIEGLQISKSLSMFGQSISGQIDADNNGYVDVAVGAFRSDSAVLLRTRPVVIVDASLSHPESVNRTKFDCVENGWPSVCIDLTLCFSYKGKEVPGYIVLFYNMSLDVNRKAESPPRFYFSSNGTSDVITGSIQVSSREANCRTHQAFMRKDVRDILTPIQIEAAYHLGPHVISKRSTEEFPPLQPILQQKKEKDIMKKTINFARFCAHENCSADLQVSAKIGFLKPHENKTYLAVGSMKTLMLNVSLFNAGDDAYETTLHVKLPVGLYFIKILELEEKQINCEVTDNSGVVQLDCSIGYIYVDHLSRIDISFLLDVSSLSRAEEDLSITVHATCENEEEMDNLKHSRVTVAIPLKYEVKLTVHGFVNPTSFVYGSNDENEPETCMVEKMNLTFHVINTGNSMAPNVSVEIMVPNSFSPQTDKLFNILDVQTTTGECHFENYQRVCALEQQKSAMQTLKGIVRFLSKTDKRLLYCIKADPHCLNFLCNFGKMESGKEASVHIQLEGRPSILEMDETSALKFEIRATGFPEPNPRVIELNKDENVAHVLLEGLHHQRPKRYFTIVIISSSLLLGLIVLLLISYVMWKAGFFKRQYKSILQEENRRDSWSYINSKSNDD
T2 sequence (P05556 21-798): as the sequence (P05556 21-798) above
Description: (§1) The ligands (3 μg/ml of collagen IV for […] or 3 μg/ml of collagen I for α2β1) for the test designed to assess the specificity of representative embodiments of the instant compounds for the α2β1 integrin were immobilized on 96-well flat microtiter plates (100 μl for each well) in PBS buffer solution overnight at 4° C. In the case of VCAM (3 μg/ml, for α4β1) and fibronectin (10 μg/ml, for α5β1), 20 mM acetic acid was used instead of PBS buffer solution. As those skilled in the art will recognize, VCAM is a known endothelial ligand for α4β1/VLA-4, and fibronectin is a known ligand for […]. In the case of α1β1 and α2β1, blocking was performed with 1% BSA in HBSS buffer solution containing Mg^2+ (but without Ca^2+) for 1 hour. In the case of α4β1 and α5β1, 1% BSA in HyQ HBSS buffer solution containing Ca^2+ and Mg^2+ was used. […] After centrifugation and washing with buffer solution containing 1% BSA, cells were re-suspended in same buffer solution (1×10^6 cells/ml) and incubated in the presence of a different concentration of inhibitors at room temperature for 15 minutes. Cells were added to the wells (100 μl/well) and incubated at 37° C. for 30 minutes. Unbound cells were washed out and bound cells were lysed by the addition of 0.5% Triton X-100.
(§2) The K562 cells expressing α5β1 integrin, Jurkat cells expressing α4β1, and K562 cells transfected with α1 and α2 integrins were provided by Dr. C. Marcinkiewicz (Temple University, Philadelphia, Pa.).
(§3) Plates were read using a Cytofluor 2350 fluorescence plate reader (Millipore, Bedford, Mass.) with a 485 nm (excitation) and 530 nm (emission).

[3] = target: T3, α2β1 (Homo sapiens, UniProt P05556+P17301); assay: Cell adhesion assay to assess specificity: α2-transfected K562 cells on collagen I
T3 construct: Marcinkiewicz (Temple University, Philadelphia, Pa.); host or cells: K562
T3 sequence (P17301 30-1181): as the sequence (P17301 30-1181) above
T3 sequence (P05556 21-798): as the sequence (P05556 21-798) above
Description: as §1, §2, §3

[4] = target: T4, α1β1 (Homo sapiens, UniProt P05556+P56199); assay: Cell adhesion assay to assess specificity: α1-transfected K562 cells on collagen IV; details: read-out: % inhibition at 3 μM, α1β1
T4 construct: Marcinkiewicz (Temple University, Philadelphia, Pa.); host or cells: K562
T4 sequence (P56199 29-1179): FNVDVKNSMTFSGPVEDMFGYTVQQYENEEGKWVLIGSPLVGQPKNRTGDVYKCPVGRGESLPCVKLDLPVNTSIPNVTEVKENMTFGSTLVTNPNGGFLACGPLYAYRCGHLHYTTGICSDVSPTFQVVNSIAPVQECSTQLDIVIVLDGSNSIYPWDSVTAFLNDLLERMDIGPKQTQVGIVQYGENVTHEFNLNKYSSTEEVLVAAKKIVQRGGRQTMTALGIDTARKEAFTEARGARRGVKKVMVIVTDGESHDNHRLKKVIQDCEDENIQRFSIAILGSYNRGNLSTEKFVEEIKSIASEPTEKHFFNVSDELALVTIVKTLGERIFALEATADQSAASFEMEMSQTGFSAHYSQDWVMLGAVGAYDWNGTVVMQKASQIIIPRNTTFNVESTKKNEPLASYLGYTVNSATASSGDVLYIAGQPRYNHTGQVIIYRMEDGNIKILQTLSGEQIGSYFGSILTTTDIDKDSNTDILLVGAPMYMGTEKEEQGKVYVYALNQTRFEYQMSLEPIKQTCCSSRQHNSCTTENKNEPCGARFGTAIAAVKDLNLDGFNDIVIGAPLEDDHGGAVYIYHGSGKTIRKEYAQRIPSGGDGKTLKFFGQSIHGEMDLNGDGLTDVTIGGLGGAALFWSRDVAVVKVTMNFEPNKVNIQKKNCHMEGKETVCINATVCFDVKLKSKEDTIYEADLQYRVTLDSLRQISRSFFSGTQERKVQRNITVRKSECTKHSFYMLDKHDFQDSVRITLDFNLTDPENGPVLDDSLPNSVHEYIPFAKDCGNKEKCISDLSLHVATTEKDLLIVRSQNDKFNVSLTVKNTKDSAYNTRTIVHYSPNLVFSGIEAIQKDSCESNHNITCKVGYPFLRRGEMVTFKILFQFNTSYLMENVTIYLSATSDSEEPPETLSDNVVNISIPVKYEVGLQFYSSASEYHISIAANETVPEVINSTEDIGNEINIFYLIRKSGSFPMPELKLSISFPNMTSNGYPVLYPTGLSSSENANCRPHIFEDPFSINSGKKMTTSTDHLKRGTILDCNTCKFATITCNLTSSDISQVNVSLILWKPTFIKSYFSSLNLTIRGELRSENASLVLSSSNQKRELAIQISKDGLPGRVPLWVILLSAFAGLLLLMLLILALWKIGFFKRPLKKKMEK
T4 sequence (P05556 21-798): as the sequence (P05556 21-798) above
Description: as §1, §2, §3

[5] = human platelet adhesion to type I (soluble, monomeric) collagen, static conditions, single donor, read-out: IC50

IC50 [1, 5]	SMILES	further results
36 nM	Cc1ccc(S(=O)(=O)N2CCC[C@H]2C(=O)N[C@@H](CNC(=O)NCc2ccccc2)C(=O)O)cc1 [Compound 27, 3-(3-Benzyl-ureido)-2-{[1-(toluene-4-sulfonyl)-pyrrolidine-2-carbonyl]-amino}-propionic acid] (Tos-Pro-[Dap]([CO-NHBn])-OH)	–
1940 nM	O=C(NCc1ccccc1)NC[C@H](NC(=O)[C@@H]1CCCN1S(=O)(=O)c1cccc2ccccc12)C(=O)O [Compound 28]	–
900 nM	O=C(NCc1ccccc1)NC[C@H](NC(=O)[C@@H]1CCCN1S(=O)(=O)c1ccc2ccccc2c1)C(=O)O [Compound 29]	IC50 [2]: 4330 nM; IC50 [3]: 177 nM; inhibition at 3 µM [4]: 30%
23 nM	Nc1ccc(CNC(=O)NC[C@H](NC(=O)[C@@H]2CCCN2S(=O)(=O)c2ccccc2)C(=O)O)cc1 [Compound 30, 3-[3-(4-Amino-benzyl)-ureido]-2-[(1-benzenesulfonyl-pyrrolidine-2-carbonyl)-amino]-propionic acid]	IC50 ([1]; platelets on collagen I, read-out: IC50 (nM), α2β1, Platelet, Collagen I): 23 nM; IC50 [2]: 1970 nM; IC50 [3]: 102 nM; inhibition at 3 µM [4]: 22%
236 nM	O=C(Cc1ccccc1)Nc1ccc(S(=O)(=O)N2CCC[C@H]2C(=O)N[C@@H](CNC(=O)NCc2ccccc2)C(=O)O)cc1 [Compound 32, 3-(3-Benzyl-ureido)-2-{[1-(4-phenylacetylamino-benzenesulfonyl)-pyrrolidine-2-carbonyl]-amino}-propionic acid]	–
151 nM	O=C(NCc1ccccc1)NC[C@H](NC(=O)[C@@H]1CCCN1S(=O)(=O)c1ccc(NC(=O)Nc2ccccc2)cc1)C(=O)O [Compound 33, 3-(3-Benzyl-ureido)-2-({1-[4-(3-phenyl-ureido)-benzenesulfonyl]-pyrrolidine-2-carbonyl}-amino)-propionic acid]	–
50 nM	O=C(NCc1ccccc1)NC[C@H](NC(=O)[C@@H]1CCCN1S(=O)(=O)c1ccc2ccccc2c1)C(=O)O [Compound 34, 3-(3-Benzyl-ureido)-2-{[1-(naphthalene-2-sulfonyl)-pyrrolidine-2-carbonyl]-amino}-propionic acid]	–
107 nM	O=C(NCc1ccccc1Cl)NC[C@H](NC(=O)[C@@H]1CCCN1S(=O)(=O)c1ccccc1)C(=O)O [Compound 35, 2-[(1-Benzenesulfonyl-pyrrolidine-2-carbonyl)-amino]-3-[3-(2-chloro-benzyl)-ureido]-propionic acid]	–
296 nM	O=C(NC[C@H](NC(=O)[C@@H]1CCCN1S(=O)(=O)c1ccccc1)C(=O)O)Nc1ccccc1 [Compound 36, 2-[(1-Benzenesulfonyl-pyrrolidine-2-carbonyl)-amino]-3-(3-phenyl-ureido)-propionic acid]	–
367 nM	O=C(CCc1ccccc1)NC[C@H](NC(=O)[C@@H]1CCCN1S(=O)(=O)c1ccccc1)C(=O)O [Compound 37, 2-[(1-Benzenesulfonyl-pyrrolidine-2-carbonyl)-amino]-3-(3-phenyl-propionylamino)-propionic acid]	–
660 nM	O=C(NC[C@H](NC(=O)[C@@H]1CCCN1S(=O)(=O)c1ccccc1)C(=O)O)c1ccccc1 [Compound 38, 2-[(1-Benzenesulfonyl-pyrrolidine-2-carbonyl)-amino]-3-benzoylamino-propionic acid]	–
185 nM	O=C(NC[C@H](NC(=O)[C@@H]1CCCN1S(=O)(=O)c1ccccc1)C(=O)O)OCc1ccccc1 [Compound 39, 2-[(1-Benzenesulfonyl-pyrrolidine-2-carbonyl)-amino]-3-benzyloxycarbonylamino-propionic acid]	–
467 nM	COc1ccccc1CNC(=O)NC[C@H](NC(=O)[C@@H]1CCCN1S(=O)(=O)c1ccccc1)C(=O)O [Compound 40, 2-[(1-Benzenesulfonyl-pyrrolidine-2-carbonyl)-amino]-3-[3-(2-methoxy-benzyl)-ureido]-propionic acid]	–
160 nM	COc1cccc(CNC(=O)NC[C@H](NC(=O)[C@@H]2CCCN2S(=O)(=O)c2ccccc2)C(=O)O)c1 [Compound 41, 2-[(1-Benzenesulfonyl-pyrrolidine-2-carbonyl)-amino]-3-[3-(3-methoxy-benzyl)-ureido]-propionic acid]	–
367 nM	CCCNC(=O)NC[C@H](NC(=O)[C@@H]1CCCN1S(=O)(=O)c1ccccc1)C(=O)O [Compound 42, 2-[(1-Benzenesulfonyl-pyrrolidine-2-carbonyl)-amino]-3-{3-propyl-ureido)-propionic acid]	–
35 nM	O=C(NCc1ccccc1)NC[C@H](NC(=O)[C@@H]1CCCN1S(=O)(=O)c1cc(F)cc(F)c1)C(=O)O [Compound 43, 3-(3-Benzyl-ureido)-2-{[1-(3,5-difluoro-benzenesulfonyl)-pyrrolidine-2-carbonyl]-amino}-propionic acid]	–
70 nM	CS(=O)(=O)c1ccc(S(=O)(=O)N2CCC[C@H]2C(=O)N[C@@H](CNC(=O)NCc2ccccc2)C(=O)O)cc1 [Compound 44, 3-(3-Benzyl-ureido)-2-{[1-(4-methanesulfonyl-benzenesulfonyl)-pyrrolidine-2-carbonyl]-amino}-propionic acid]	–
185 nM	CC(C)(C)NC(=O)NC[C@H](NC(=O)[C@@H]1CCCN1S(=O)(=O)c1ccccc1)C(=O)O [Compound 45, 2-[(1-Benzenesulfonyl-pyrrolidine-2-carbonyl)-amino]-3-(3-tert-butyl-ureido)-propionic acid]	–
240 nM	O=C(NCc1ccccc1)NC[C@H](NC(=O)[C@@H]1C[C@@H](OCc2ccccc2)CN1S(=O)(=O)c1ccccc1)C(=O)O [Compound 46, 2-[(1-Benzenesulfonyl-4-benzyloxy-pyrrolidine-2-carbonyl)-amino]-3-(3-benzyl-ureido)-propionic acid]	–
34 nM	O=C(NCc1ccccc1)NC[C@H](NC(=O)[C@@H]1C[C@@H](O)CN1S(=O)(=O)c1ccccc1)C(=O)O [Compound 47, 2-[(1-Benzenesulfonyl-4-hydroxy-pyrrolidine-2-carbonyl)-amino]-3-(3-benzyl-ureido)-propionic acid]	–
39 nM	O=C(NCc1ccccc1)NC[C@H](NC(=O)[C@@H]1CCCN1S(=O)(=O)c1cc(C(F)(F)F)cc(C(F)(F)F)c1)C(=O)O [Compound 49, 3-(3-Benzyl-ureido)-2-{[1-(3,5-bis-trifluoromethyl-benzenesulfonyl)-pyrrolidine-2-carbonyl]-amino}-propionic acid]	–
56 nM	O=C(NCc1ccccc1)NC[C@H](NC(=O)C1CCCCN1S(=O)(=O)c1ccccc1)C(=O)O (some centres unmarked) [Compound 51, 2-[(1-Benzenesulfonyl-piperidine-2-carbonyl)-amino]-3-(3-benzyl-ureido)-propionic acid]	–
